Data set [1] can be described thus: Pharmacokinetics, doxorubicin concentration in blood plasma after intravenous injection. The note with it: mouse, 2 mg/kg.
The subject of data set [2] is doxorubicin-resistant HeLa cells. Briefly: In vitro cytotoxicity on doxorubicin-resistant cells. The note with it: even at a concentration of 5 mg L^−1. Format: cell-based. How it is done: Next, the cytotoxicity of doxorubicin-loaded nanospheres towards HeLa cells was evaluated with 3-(4, 5-dimethylthiazol-2-yl)-2, 5-diphenyltetrazolium bromide (MTT) assay. HeLa cells (1×10^4 cells per well) were seeded in the 96-well plates. After culture for 24 h, the cells were exposed to the doxorubicin solution and doxorubicin-loaded liquid metal nanoparticles with different concentrations of doxorubicin for 24 h, followed by adding 20 μl of the MTT solution (5 mg mL^−1). After 4 h of incubation, the medium was removed, and the cells were mixed with 150 μl of dimethyl sulfoxide. The absorbance was measured at a test wavelength of 570 nm and a reference wavelength of 630 nm by a microplate reader (Infinite M200 PRO, Tecan).
Next, the in vitro cytotoxicity of doxorubicin loaded ligand-capped liquid metal nanoparticles towards doxorubicin-resistant HeLa cells was investigated.

The nature of data set [3]: in vivo. The following applies: mouse, iv, 2 mg/kg.

In data set [1], `COc1cccc2c1C(=O)c1c(O)c3c(c(O)c1C2=O)C[C@@](O)(C(=O)CO)C[C@@H]3O[C@H]1C[C@H](N)[C@H](O)[C@H](C)O1` [Doxorubicin] had an MRT of 2.8 ± 0.61 h and a half-life of 1.11 ± 0.02 h. In addition, in data set [2], the cytotoxicity entry is given as “did not show any obvious cytotoxicity”. The same molecule displayed a Cmax in data set [3] of 1450 ± 60 ng/mL.

As usually defined, the MRT is the average time that molecules of a dose stay in the body. For orientation: half-life means how long it takes for the measured level to halve. Lower therefore signals fast loss. What is called Cmax is the highest concentration seen after dosing.

The record behind these values is patent US20180360767A1, “BIOCOMPATIBLE PARTICLES AND METHODS OF MAKING AND USE THEREOF” (priority 2015, published 2018).
